Values of other authors as cited in patent US11857556B2, “Topical compositions of dutasteride” (SHILPA MEDICARE LIMITED, priority 2021, dated 2024).

C[C@]12C=CC(=O)N[C@@H]1CC[C@@H]1[C@@H]2CC[C@]2(C)[C@@H](C(=O)Nc3cc(C(F)(F)F)ccc3C(F)(F)F)CC[C@@H]12 [Dutasteride, (5α,17β)-N-{2,5-bis(trifluoromethyl)phenyl}-3-oxo-4-azaandrost-1-ene-17-carboxamide]
Solubility in ethanol, methanol and polyethylene glycol 400 (ethanol, methanol and polyethylene glycol 400): soluble
Solubility in water (water): insoluble
